Source: PMC10440746, “Biosynthesis of 3,6-Dideoxy-heptoses for the Capsular Polysaccharides of Campylobacter jejuni” (Biochemistry, 2023)

What was measured:
C5-epimerase (HS:5) = conditions: pH 7.5, 25 °C; 50 mM HEPES/KOH; 300 μM NADPH; apparent
C3-dehydratase (HS:5) = test system: T1, C3-dehydratase (HS:5); experiment: coupled glutamate dehydrogenase assay, NADPH oxidation at […] nm; type: biochemical, Campylobacter; conditions: pH 7.5, 25 °C; 0.2 mM PLP, 4.0 mM L-glutamate; 50 mM ammonium bicarbonate; apparent
T1 construct: full length, N-terminal 21-residue His6 tag (pET-28a), codon-optimised gene, E. coli BL21(DE3)

Nc1nc2c(ncn2[C@@H]2O[C@H](COP(=O)(O)OP(=O)(O)O[C@H]3O[C@H](CCO)C(=O)C[C@@H]3O)[C@@H](O)[C@H]2O)c(=O)[nH]1 [compound 8, GDP-3,6-dideoxy-4-keto-α-D-threo-heptose]
Km (C5-epimerase (HS:5)): 480 ± 80 µM

Nc1nc2c(ncn2[C@@H]2O[C@H](COP(=O)(O)OP(=O)(O)O[C@H]3O[C@H](CCO)C(=O)[C@H](O)[C@@H]3O)[C@@H](O)[C@H]2O)c(=O)[nH]1 [compound 5, GDP-6-deoxy-4-keto-α-D-lyxo-heptose]
Km (C3-dehydratase (HS:5)): 840 ± 60 µM
